Data reported in paper PMC6931042 (Bioorganic chemistry, 2018).
Read-outs that look alike come from different tables or passages of the source.

Legend:
[1] = test system: human lung adenocarcinoma A549; assay: Trypan blue exclusion cytotoxicity assay
[2] = test system: chronic myeloid leukemia K-562; assay: Trypan blue exclusion cytotoxicity assay
[3] = Homo sapiens, A549, 24 h, read-out: A549 (IC50 μM), trypan blue exclusion, mean ± SD
[4] = Homo sapiens, K562, 24 h, read-out: K-562 (IC50 μM), trypan blue exclusion, mean ± SD
[5] = read-out: A549 (IC50 μM), trypan blue exclusion, 24 h, mean ± SD
[6] = read-out: K-562 (IC50 μM), trypan blue exclusion, 24 h, mean ± SD

| SMILES | IC50 [1, 3] [µM] | IC50 [2, 4] [µM] | IC50 [1, 5] [µM] | IC50 [2, 6] [µM] |
| --- | --- | --- | --- | --- |
| COc1ccc(/C=C\C(=NNC(=O)c2cc(-c3ccc(Cl)cc3)nc3ccc(OC)cc23)c2ccc(N)cc2)cc1 [Compound 9q, N’-((Z)-1-(4-Aminophenyl)-3-(4-methoxyphenyl)allylidene)-2-(4-chlorophenyl)-6-methoxyquinoline-4-carbohydrazide] | 97.2 ± 2.36 | 68.1 ± 2.87 | – | – |
| COc1ccc(-c2cc(C(=O)NN=C(/C=C\c3ccc(Cl)cc3)c3ccc(N)cc3)c3cc(OC)ccc3n2)cc1 [Compound 9l, N’-((Z)-1-(4-Aminophenyl)-3-(4-chlorophenyl)allylidene)-2-(4-methoxyphenyl)-6-methoxyquinoline-4-carbohydrazide] | > 100 | 5.17 ± 0.18 | – | – |
| Nc1ccc(C(/C=C\c2ccc(Cl)cc2)=NNC(=O)c2cc(-c3ccc(Cl)cc3)nc3ccccc23)cc1 [Compound 9h, N’-((Z)-1-(4-Aminophenyl)-3-(4-chlorophenyl)allylidene)-2-(4-chlorophenyl)quinoline-4-carbohydrazide] | 9 | 4.28 ± 0.34 | 9.46 ± 0.63 | – |
| COc1ccc(/C=C\C(=NNC(=O)c2cc(-c3ccc(C)cc3)nc3ccccc23)c2ccc(N)cc2)cc1 [Compound 9p, N’-((Z)-1-(4-Aminophenyl)-3-(4-methoxyphenyl)allylidene)-2-(4-methylphenyl)quinoline-4-carbohydrazide] | 33.9 ± 2.15 | 18 ± 0.97 | – | – |
| COc1ccc(/C=C\C(=NNC(=O)c2cc(-c3ccc(OC)cc3)nc3ccccc23)c2ccc(N)cc2)cc1 [Compound 9o, N’-((Z)-1-(4-Aminophenyl)-3-(4-methoxyphenyl)allylidene)-2-(4-methoxyphenyl)quinoline-4-carbohydrazide] | 46.5 ± 2.21 | 10.9 ± 0.74 | – | – |
| COc1ccc(/C=C\C(=NNC(=O)c2cc(-c3ccc(Cl)cc3)nc3ccccc23)c2ccc(N)cc2)cc1 [Compound 9n, N’-((Z)-1-(4-Aminophenyl)-3-(4-methoxyphenyl)allylidene)-2-(4-chlorophenyl)quinoline-4-carbohydrazide] | 48.3 ± 1.69 | 14.4 ± 0.94 | – | – |
| COc1ccc2nc(-c3ccc(Cl)cc3)cc(C(=O)NN=C(/C=C\c3ccc(OC)c(OC)c3)c3ccc(N)cc3)c2c1 [Compound 9s, N’-((Z)-1-(4-Aminophenyl)-3-(3,4-dimethoxyphenyl)allylidene)-2-(4-chlorophenyl)-6-methoxyquinoline-4-carbohydrazide] | > 100 | > 100 | – | – |
| COc1ccc(/C=C\C(=NNC(=O)c2cc(-c3ccc(OC)cc3)nc3ccc(OC)cc23)c2ccc(N)cc2)cc1 [Compound 9r, N’-((Z)-1-(4-Aminophenyl)-3-(4-methoxyphenyl)allylidene)-2-(4-methoxyphenyl)-6-methoxyquinoline-4-carbohydrazide] | 67.4 ± 2.29 | 4.45 ± 0.64 | – | – |
| COc1ccc(-c2cc(C(=O)NN=C(/C=C\c3ccc(OC)c(OC)c3)c3ccc(N)cc3)c3cc(OC)ccc3n2)cc1 [Compound 9t, N’-((Z)-1-(4-Aminophenyl)-3-(3,4-dimethoxyphenyl)allylidene)-2-(4-methoxyphenyl)-6-methoxyquinoline-4-carbohydrazide] | 31.6 ± 2.02 | 23.1 ± 2.15 | – | – |
| Cc1ccc(-c2cc(C(=O)NN=C(/C=C\c3ccccc3)c3ccc(N)cc3)c3ccccc3n2)cc1 [Compound 9d, N’-((Z)-1-(4-Aminophenyl)-3-phenylallylidene)-2-(4-methylphenyl)quinoline-4-carbohydrazide] | 11 | 6.98 ± 0.92 | 11.2 ± 0.52 | – |
| N.N.[Cl][Pt][Cl] [Cisplatin, reference compound] | – | – | 15.3 ± 1.87 | 2.71 ± 0.34 |
| COc1ccc(-c2cc(C(=O)NN=C(/C=C\c3ccccc3)c3ccc(N)cc3)c3cc(OC)ccc3n2)cc1 [Compound 9f, N’-((Z)-1-(4-Aminophenyl)-3-phenylallylidene)-2-(4-methoxyphenyl)-6-methoxyquinoline-4-carbohydrazide] | 91 | 81 | 91.4 ± 4.54 | 81.2 ± 3.14 |
| COc1ccc(-c2cc(C(=O)NN=C(/C=C\c3ccccc3)c3ccc(N)cc3)c3ccccc3n2)cc1 [Compound 9c, N’-((Z)-1-(4-Aminophenyl)-3-phenylallylidene)-2-(4-methoxyphenyl)quinoline-4-carbohydrazide] | 16.4 ± 1.3 | 5.37 ± 0.31 | – | – |
| Nc1ccc(C(/C=C\c2ccccc2)=NNC(=O)c2cc(-c3ccc(Cl)cc3)nc3ccccc23)cc1 [Compound 9b, N’-((Z)-1-(4-Aminophenyl)-3-phenylallylidene)-2-(4-chlorophenyl)quinoline-4-carbohydrazide] | 17.6 ± 2.5 | 8.96 ± 1.06 | – | – |
| COc1ccc2nc(-c3ccc(Cl)cc3)cc(C(=O)NN=C(/C=C\c3ccccc3)c3ccc(N)cc3)c2c1 [Compound 9e, N’-((Z)-1-(4-Aminophenyl)-3-phenylallylidene)-2-(4-chlorophenyl)-6-methoxyquinoline-4-carbohydrazide] | 19.2 ± 1.85 | 5.09 ± 0.19 | – | – |
| Nc1ccc(C(/C=C\c2ccc(Cl)cc2)=NNC(=O)c2cc(-c3ccccc3)nc3ccccc23)cc1 [Compound 9g, N’-((Z)-1-(4-Aminophenyl)-3-(4-chlorophenyl)allylidene)-2-phenylquinoline-4-carbohydrazide] | 18.5 | 15.2 | 18.5 ± 0.52 | 15.2 ± 2.15 |
| COc1ccc2nc(-c3ccc(Cl)cc3)cc(C(=O)NN=C(/C=C\c3ccc(Cl)cc3)c3ccc(N)cc3)c2c1 [Compound 9k, N’-((Z)-1-(4-Aminophenyl)-3-(4-chlorophenyl)allylidene)-2-(4-chlorophenyl)-6-methoxyquinoline-4-carbohydrazide] | > 100 | 15.2 ± 1.49 | – | – |
| O=c1cc(N2CCOCC2)oc2c(-c3ccccc3)cccc12 [LY294002, reference compound] | 3.52 | 2.68 | – | – |
| Nc1ccc(C(/C=C\c2ccccc2)=NNC(=O)c2cc(-c3ccccc3)nc3ccccc23)cc1 [Compound 9a, N’-((Z)-1-(4-Aminophenyl)-3-phenylallylidene)-2-phenylquinoline-4-carbohydrazide] | > 100 | 83 | – | 82.8 ± 3.24 |
| COc1ccc(/C=C\C(=NNC(=O)c2cc(-c3ccccc3)nc3ccccc23)c2ccc(N)cc2)cc1 [Compound 9m, N’-((Z)-1-(4-Aminophenyl)-3-(4-methoxyphenyl)allylidene)-2-phenylquinoline-4-carbohydrazide] | > 100 | 60.7 ± 2.67 | – | – |
